The values below come from patent publication US11331304B2, “YAP1 inhibitors and methods” (The Jackson Laboratory, priority 2016, dated 2022).

Data set [1] relates to Smo-M2;GFAP-cre medulloblastoma tumor slices. Kind of data set: Tumor slice culture ex vivo, tissue viability by Cell Titer Blue. It is filed as cell-based, mouse. As for the experimental part:
Fresh tumor tissues were dissected and cut into 250 micrometer (μm) thick slices and cultured at air-media interface in serum-free medium (DMEM/F12, B27, pen/strep) for 8-12 days. Tissue viability was measured by Cell Titer Blue assay (Promega, Madison, Wis.) at 2-4 days intervals. DMSO or drugs were added after each viability reading.
In general terms: Resazurin is reduced to fluorescent resorufin, in cell work by metabolically active cells.

Data set [2] deals with Ptch;p53 and Smo-M2;GFAP-cre medulloblastoma cells. Description: Self-renewal (sphere formation at clonal density) of SHH medulloblastoma tumorspheres. It is filed as cell-based, mouse. The note with it: for suppression of self-renewal: Ptch;p53 and Smo-M2;GFAP-cre cells in vitro, n=3; for self-renewal (in words): in vitro. As for the experimental part:
(§1) To test YAP function in human cells, primary cells from a SHH subgroup PDX model (MED311) were isolated and treated with VP.
(§2) Primary cells from spontaneous mouse medulloblastoma ([…];p53^−/− or FSMO;GFAPcre) and MED311 PDX model were isolated and cultured in serum-free stem cell medium (DMEM/F12, B27, pen/strep, bFGF9 10 nanograms per milliliter (ng/mL)), and EGF (20 ng/mL). Number of self-renewing stem cells in vitro were measured by plating single cells at a clonal density (<1 cell/μL) and counting spheres >100 μM 7 days later. To establish IC50 values, 3000 mouse medulloblastoma cells were plated in 96 wells and treated varying concentrations of verteporfin and new derivatives were synthesized, in triplicate, and viability was measured using Cell Titer Blue assay (Promega, Madison, Wis.) 3 days after drug treatment.

Data set [3] is described as follows: Solubility of verteporfin derivative compounds in water and buffer (pH = 2). It is filed as physicochemical.
Data set [4] concerns MED311 human patient-derived xenograft (PDX) SHH medulloblastoma cells. Kind of data set: VP treatment of primary cells from SHH subgroup PDX model. It is filed as cell-based. The procedure: as §1, §2
In the next data set the test system is SMO-M2;GFAP-cre mice. Description: Kaplan-Meier survival of SMO-M2;GFAP-cre mice, intraperitoneal injection. The note with it: IP injection, versus vehicle (DMSO), N=8 each group. It is filed as in vivo, mouse.
A further data set deals with YAP:TEAD (Homo sapiens, UniProt P46937). The note with it: Liu-Chittenden et al. 2012; cited from earlier work.

Structures are written as SMILES. “Also recorded” adds a separate entry of the source.

Chain of YAP:TEAD (P46937 whole entry): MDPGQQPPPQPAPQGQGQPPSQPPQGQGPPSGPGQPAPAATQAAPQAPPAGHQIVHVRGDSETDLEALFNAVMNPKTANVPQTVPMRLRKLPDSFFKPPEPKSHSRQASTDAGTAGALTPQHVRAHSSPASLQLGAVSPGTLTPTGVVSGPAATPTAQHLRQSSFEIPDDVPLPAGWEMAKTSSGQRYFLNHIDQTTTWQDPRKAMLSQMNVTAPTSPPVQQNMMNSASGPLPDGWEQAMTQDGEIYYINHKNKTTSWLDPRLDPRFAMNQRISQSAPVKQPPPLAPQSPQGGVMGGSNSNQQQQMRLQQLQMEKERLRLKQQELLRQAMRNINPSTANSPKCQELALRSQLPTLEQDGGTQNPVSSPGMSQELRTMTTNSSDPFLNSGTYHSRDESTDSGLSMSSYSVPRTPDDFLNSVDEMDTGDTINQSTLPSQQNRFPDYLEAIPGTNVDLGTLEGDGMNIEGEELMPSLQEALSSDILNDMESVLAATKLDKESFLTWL

Take `C=Cc1c(C)c2cc3nc(cc4[nH]c(cc5nc(cc1[nH]2)C(C)=C5CCC(=O)O)c(CCC(=O)OC)c4C)[C@@]1(C)C3=CC=C(C(=O)OC)[C@H]1C(=O)OC` [Verteporfin, 3-[(23 S,24R)-14-ethenyl-5-(3-methoxy-3-oxopropyl)-22,23-bis(methoxycarbonyl)-4,10,15,24-tetramethyl-25,26,27,28-tetraazahexacyclo[16.6.1.13,6.18,11.113,16.019,24]octacosa-1,3,5,7,9,11(27),12,14,16,18(25), 19,21-dodecaen-9-yl]propanoic acid]: the “response of tumor tissue explants grown as intact slices” value in data set [1] is recorded as “significant response”. In addition, the suppression of self-renewal is on record as ~50% in data set [2] (0.1 μM) and 100% in data set [2]. Also, the “self-renewal (in words)” value in data set [2] (100 nM) is on record as “suppressed self-renewal”; in data set [2] (1 μM), “completely suppressed self-renewal”. In addition, the “solubility (in words)” value in data set [3] is “poor solubility”. Further, the “Buffer (pH = 2) result” value in data set [3] (phosphate buffer pH = 2) is listed as “insoluble”. Besides, the Water result in data set [3] (water, at the amount per volume in mg/mL) is listed as “insoluble”. Besides, in data set [4] (24 hours post-VP treatment, listed as VP), the cell morphology entry was “significant morphology change; also recorded: morphological changes consistent with apoptosis”. Moreover, the proliferation entry in data set [4] (upon VP treatment) was “reduced proliferation”. Besides, the survival result in the data set with SMO-M2;GFAP-cre mice was “increase survival”. Also, at YAP:TEAD, the “YAP:TEAD binding” value is reported as “inhibit YAP:TEAD binding”.
